Source: US10857138B2, “Pharmaceutical compositions comprising antibacterial agents” (WOCKHARDT LIMITED, priority 2014, dated 2020)

What was measured:
[1] = test system: Klebsiella pneumoniae B 88 strain producing NDM-1, SHV, TEM and CTXM beta-lactamase enzymes; assay: Time kill study against K. pneumoniae B 88; format: cell-based; parameters: Effect on bacterial count when used alone: dose or concentration left out as unconfirmed; conditions: for Bacterial count (Log10CFU/ml) 2 hours / Bacterial count (Log10CFU/ml) 4 hours / Bacterial count (Log10CFU/ml) 6 hours / Bacterial count (Log10CFU/ml) 8 hours: each agent at 4 mcg/ml, alone or in combination; for Effect on bacterial count when used alone: used alone at 4 mcg/ml, throughout the duration of the study
Description: (§1) In a typical time kill study, the freshly grown cultures were diluted to the required cell density (initial starting inoculum) in Cation adjusted Muller Hinton broth medium (BD, USA). The antibacterial agents (either alone or in combination) at the required concentrations were added into the culture-containing medium. The samples were incubated under shaking condition (120 rpm) at 37° C. Enumeration of viable bacterial count was done every 2 hour by diluting in normal saline and plating on to the Tryptic Soya Agar plates (BD, USA). The plates were incubated for 24 hours to arrive at the viable bacterial count. […] In general, the decrease of 1 Log CFU/ml, corresponds to 90% killing of bacteria. Similarly, 2 Log CFU/ml reductions indicates to 99% killing of bacteria and 3 Log CFU/ml reductions is equal to 99.9% killing of bacteria.
(§2) The assay without any antibacterial agent was taken as control.

[2] = test system: Klebsiella pneumoniae NCTC 13443 strain producing NDM-1, SHV and TEM beta-lactamase enzymes; assay: Time kill study against K. pneumoniae NCTC 13443; format: cell-based; conditions: for Bacterial count (Log10CFU/ml) 2 hours / Bacterial count (Log10CFU/ml) 4 hours / Bacterial count (Log10CFU/ml) 6 hours / Bacterial count (Log10CFU/ml) 8 hours: each agent at 4 mcg/ml, alone or in combination; for Effect on bacterial count when used alone: used alone at 4 μg/ml, throughout the duration of the study
Description: as §1, §2

Structure (SMILES) | Bacterial count (Log10CFU/ml) 2 hours [1] [Log10CFU/ml] | Bacterial count (Log10CFU/ml) 4 hours [1] [Log10CFU/ml] | Bacterial count (Log10CFU/ml) 6 hours [1] [Log10CFU/ml] | Bacterial count (Log10CFU/ml) 8 hours [1] [Log10CFU/ml] | Effect on bacterial count when used alone [1] | Bacterial count (Log10CFU/ml) 2 hours [2] [Log10CFU/ml] | Bacterial count (Log10CFU/ml) 4 hours [2] [Log10CFU/ml] | Bacterial count (Log10CFU/ml) 6 hours [2] [Log10CFU/ml] | Bacterial count (Log10CFU/ml) 8 hours [2] [Log10CFU/ml] | Effect on bacterial count when used alone [2]
N#C[C@@H]1CC[C@@H]2CN1C(=O)N2OS(=O)(=O)[O-].[Na+] [Compound A, Sodium salt of trans-7-oxo-6-sulphooxy-1,6-diazabicyclo[3.2.1]-octane-2-carbonitrile] | 8 | 8.2 | 8.5 | 8.8 | not effective to decrease the bacterial count | 8.3 | 8.5 | 8.8 | 9 | not effective to decrease the bacterial count
O=C(NOC[C@@H]1CCCN1)[C@@H]1CC[C@@H]2CN1C(=O)N2OS(=O)(=O)O [Compound F, (2S,5R)-7-Oxo-N-[(2S)-pyrrolidin-2-ylmethoxy]-6-(sulfooxy)-1,6-diaza bicyclo[3.2.1]octane-2-carboxamide] | 8 | 8.2 | 8.35 | 8.7 | not effective to decrease the bacterial count | 8.4 | 8.7 | 8.9 | 9.1 | not effective to decrease the bacterial count
O=C1N2C[C@@H](CC[C@H]2c2nnc([C@@H]3CCCN3)o2)N1OS(=O)(=O)O [Compound J, trans-sulphuric acid mono-[2-(5-((S)-pyrrolidin-2-yl)-[1,3,4]-oxadiazol-2-yl)-7-oxo-1,6-diazabicyclo[3.2.1]-octan-6-yl] ester] | 8.35 | 8.5 | 8.8 | 9.2 | not effective to decrease the bacterial count | 8.35 | 8.5 | 8.8 | 9.2 | not effective to decrease the bacterial count
O=C1N2C[C@@H](CC[C@H]2c2nnc(C3CCNCC3)o2)N1OS(=O)(=O)O [Compound C] | 8.1 | 8.15 | 8.65 | 8.9 | not effective to decrease the bacterial count | 8.2 | 8.9 | 9 | 9.5 | not effective to decrease the bacterial count
O=C(NNC(=O)[C@@H]1CC[C@@H]2CN1C(=O)N2OS(=O)(=O)O)[C@@H]1CCCNC1 [Compound E, (2S,5R)-7-Oxo-6-sulphooxy-2-[N′—((R)-piperidine-3-carbonyl)-hydrazinocarbonyl]-1,6-diaza-bicyclo[3.2.1]octane] | 7.9 | 8.3 | 8.8 | 8.9 | not effective to decrease the bacterial count | 8.35 | 8.6 | 8.8 | 8.9 | not effective to decrease the bacterial count
O=C1N2C[C@@H](CC[C@H]2c2nnc(CC3CNC3)o2)N1OS(=O)(=O)O [Compound D] | 8.05 | 8.3 | 8.7 | 8.8 | not effective to decrease the bacterial count | 8.3 | 8.55 | 8.95 | 9.2 | not effective to decrease the bacterial count
C[C@@H](O)[C@H]1C(=O)N2C(C(=O)O)=C(SCCN=CN)C[C@H]12 [Imipenem, reference compound] | 8.28 | 8.7 | 8.9 | 9.2 |  | 8.35 | 8.78 | 8.88 | 9.09 | 
C[C@H]1[C@H](NC(=O)/C(=N\OC(C)(C)C(=O)O)c2csc(N)n2)C(=O)N1S(=O)(=O)O [Aztreonam, reference compound] | 8.16 | 8.7 | 8.88 | 9.04 | not effective to decrease the bacterial count | 8.38 | 8.65 | 9.02 | 9.55 | not effective to decrease the bacterial count
O=C(NOC[C@@H]1CCCCN1)[C@@H]1CC[C@@H]2CN1C(=O)N2OS(=O)(=O)O [Compound H, (2S,5R)-7-Oxo-N-[(2S)-piperidine-2-ylmethyloxy]-6-(sulfooxy)-1,6-diazabicyclo[3.2.1]octane-2-carboxamide] | 8.15 | 8.3 | 8.65 | 8.98 | not effective to decrease the bacterial count | 8.35 | 8.48 | 8.9 | 9.1 | not effective to decrease the bacterial count
C[C@H](N)c1nnc([C@@H]2CC[C@@H]3CN2C(=O)N3OS(=O)(=O)O)o1 [Compound I, trans-sulphuric acid mono-[2-(5-((S)-1-amino-ethyl)-[1,3,4]-oxadiazol-2-yl)-7-oxo-1,6-diazabicyclo[3.2.1]-octan-6-yl] ester] | 8.36 | 8.79 | 8.9 | 9.1 | not effective to decrease the bacterial count | 8.36 | 8.79 | 8.9 | 9.1 | not effective to decrease the bacterial count
NC(=O)c1nnc([C@@H]2CC[C@@H]3CN2C(=O)N3OS(=O)(=O)O)o1 [Compound B] | 7.98 | 8.2 | 8.50 | 8.9 | not effective to decrease the bacterial count | 8.3 | 8.5 | 8.8 | 8.9 | not effective to decrease the bacterial count
O=C(NNC(=O)[C@@H]1CC[C@@H]2CN1C(=O)N2OS(=O)(=O)O)[C@@H]1CCNC1 [Compound G, (2S,5R)-7-Oxo-6-sulphooxy-2-[N′—((R)-pyrrolidine-3-carbonyl)-hydrazinocarbonyl]-1,6-diaza-bicyclo[3.2.1]octane] | 7.95 | 8.05 | 8.7 | 8.98 | not effective to decrease the bacterial count | 8.36 | 8.78 | 8.9 | 9.2 | not effective to decrease the bacterial count
